# Results: patent publication US5675003A, “3-ammoniopropenyl cephalosporin compounds as antibacterial agents” (Korea Institute of Science and Technology, priority 1995, dated 1997)
# Tests used:
# Assay in all cases: MIC, in vitro agar dilution method
# Format in all cases: cell-based
# [1] = system: Streptococcus pyogenes 308 A; conditions: S.p.1, Streptococcus pyogenes 308 A; agar dilution; read-out: MIC
# Method: (§1) The MICs of the new cephalosporins of the present invention against Gram-positive and Gram-negative bacteria were determined by an in vitro agar dilution method. For comparisons, the MIC values of ceftazidime are also listed.
# (§2) In vitro antimicrobial activity of the cephalosporins (l) (MIC:
# S.p.1, Streptococcus pyogenes 308 A;
# [2] = system: Streptococcus pyogenes A 77; conditions: A77; S.p.2, Streptococcus pyogenes A 77; agar dilution; read-out: MIC
# Method: as §1, §2
# S.p.2, Streptococcus pyogenes A 77;
# [3] = system: Streptococcus faecium MD; conditions: Enterococcus faecium; S.f., Streptococcus faecium MD; agar dilution; read-out: MIC
# Method: as §1, §2
# S.f., Streptococcus faecium MD;
# [4] = system: Staphlococcus aureus SG 511; conditions: S.a.1, Staphlococcus aureus SG 511; agar dilution; read-out: MIC
# Method: as §1, §2
# S.a.1, Staphlococcus aureus SG 511;
# [5] = system: Staphylococcus aureus 285; conditions: S.a.2, Staphylococcus aureus 285; agar dilution; read-out: MIC
# Method: as §1, §2
# E.c. TEM, S.a. 2, Staphylococcus aureus 285;
# [6] = system: Staphylococcus aureus 503; conditions: S.a.3, Staphylococcus aureus 503; agar dilution; read-out: MIC
# Method: as §1, §2
# S.a.3, Staphylococcus aureus 503;
# [7] = system: Escherichia coli O55; conditions: E.c.1, Escherichia coli O55
# Method: as §1, §2
# E.c.1, Escherichia coli O55;
# [8] = system: Escherichia coli DC0; conditions: E.c.2, Escherichia coli DC0
# Method: as §1, §2
# E.c.2, Escherichia coli DC0;
# [9] = system: Escherichia coli TEM; conditions: E.c.3, Escherichia coli TEM
# Method: as §1, §2
# E.c.3, Escherichia coli TEM;
# [10] = system: Escherichia coli 1507 E; conditions: E.c.4, Escherichia coli 1507 E
# Method: as §1, §2
# E.c.4, Escherichia coli 1507 E;
# [11] = system: E.c.5; conditions: Escherichia coli, E.c.5 (strain not defined)
# Method: as §1
# [12] = system: Pseudomonas aeruginosa 9027; conditions: P.a.1, Pseudomonas aeruginosa 9027; agar dilution; read-out: MIC
# Method: as §1, §2
# P.a.1, Pseudomonas aeruginosa 9027;
# [13] = system: Pseudomonas aeruginosa 1592 E; conditions: P.a.2, Pseudomonas aeruginosa 1592 E; agar dilution; read-out: MIC
# Method: as §1, §2
# P.a.2, Pseudomonas aeruginosa 1592 E;
# [14] = system: Pseudomonas eruginosa 1771; conditions: P.a.3, Pseudomonas eruginosa 1771
# Method: as §1, §2
# P.a.3, Pseudomonas eruginosa 1771;
# [15] = system: Pseudomonas aeruginosa 1771 M; conditions: P.a.4, Pseudomonas aeruginosa 1771 M; agar dilution; read-out: MIC
# Method: as §1, §2
# P.a.4, Pseudomonas aeruginosa 1771 M;
# [16] = system: Salmonella typhimurium; conditions: Salmonella enterica; S.t., Salmonella typhimurium; agar dilution; read-out: MIC
# Method: as §1, §2
# S.t., Salmonella typhimurium;
# [17] = system: Klebsiella oxytoca 1082 E; conditions: K.o., Klebsiella oxytoca 1082 E; agar dilution; read-out: MIC
# Method: as §1, §2
# K.o., Klebsiella oxytoca 1082 E;
# [18] = system: Klebsiella aerogenes 1552 E; conditions: K.a., Klebsiella aerogenes 1552 E; agar dilution; read-out: MIC
# Method: as §1, §2
# K.a., Klebsiella aerogenes 1552 E;
# [19] = system: Enterobacter cloacae P 99; conditions: Enterobacter cloacae, P99
# Method: as §1, §2
# En.c.1, Enterobacter cloacae P 99;
# [20] = system: Enterobacter cloacae 1321 E; conditions: En.c.2, Enterobacter cloacae 1321 E; agar dilution; read-out: MIC
# Method: as §1, §2
# En.c.2, Enterobacter cloacae 1321 E.
SMILES,MIC [1],MIC [2],MIC [3],MIC [4],MIC [5],MIC [6],MIC [7],MIC [8],MIC [9],MIC [10],MIC [11],MIC [12],MIC [13],MIC [14],MIC [15],MIC [16],MIC [17],MIC [18],MIC [19],MIC [20]
"CO/N=C(\C(=O)N[C@@H]1C(=O)N2C(C(=O)[O-])=C(/C=C/C[N+]3(C)C[C@H](O)C[C@H]3CO)CS[C@H]12)c1csc(N)n1 (stereo partly drawn) [1-c, 7β-[2-(2-Aminothiazol-4-yl)-(Z)-2-methoxyiminoacetamido]-3-[(E)-3-(4R-hydroxy-2S-hydroxymethyl-1-methyl-1-pyrrolidinio)-1-propen-1-yl]-3-cephem-4-carboxylate]",0.013 µg/mL,0.004 µg/mL,50 µg/mL,0.39 µg/mL,0.78 µg/mL,0.2 µg/mL,0.013 µg/mL,0.049 µg/mL,0.025 µg/mL,0.049 µg/mL,0.049 µg/mL,6.25 µg/mL,3.13 µg/mL,1.56 µg/mL,0.2 µg/mL,0.025 µg/mL,3.13 µg/mL,0.049 µg/mL,3.13 µg/mL,0.013 µg/mL
"CO/N=C(\C(=O)N[C@@H]1C(=O)N2C(C(=O)[O-])=C(/C=C/C[N+]3(C)CCC(O)CC3)CS[C@H]12)c1csc(N)n1 (stereo partly drawn) [1-g, 7β-[2-(2-Aminothiazol-4-yl)-(Z)-2-methoxyiminoacetamido]-3-[(E)-3-(4-hydroxy-1-methyl-1-piperidinio)-1-propen-1-yl]-3-cephem-4-carboxylate]",0.013 µg/mL,0.013 µg/mL,50 µg/mL,0.39 µg/mL,0.78 µg/mL,0.2 µg/mL,0.025 µg/mL,0.049 µg/mL,0.049 µg/mL,0.098 µg/mL,0.049 µg/mL,6.25 µg/mL,3.13 µg/mL,1.56 µg/mL,0.2 µg/mL,0.049 µg/mL,3.13 µg/mL,0.025 µg/mL,3.13 µg/mL,0.025 µg/mL
"CO/N=C(\C(=O)N[C@@H]1C(=O)N2C(C(=O)[O-])=C(/C=C/C[N+]3(C)C[C@H](O)[C@@H](O)C3)CS[C@H]12)c1csc(N)n1 [1-b, 7β-[2-(2-Aminothiazol-4-yl)-(Z)-2-methoxyiminoacetamido]-3-[(E)-3-(3S,4S-dihydroxy-1-methyl-1-pyrrolidinio)-1-propen-1-yl]-3-cephem-4-carboxylate]",0.013 µg/mL,0.007 µg/mL,50 µg/mL,0.39 µg/mL,0.78 µg/mL,0.2 µg/mL,0.025 µg/mL,0.049 µg/mL,0.025 µg/mL,0.049 µg/mL,0.049 µg/mL,3.13 µg/mL,1.56 µg/mL,1.56 µg/mL,0.098 µg/mL,0.025 µg/mL,0.78 µg/mL,0.025 µg/mL,3.13 µg/mL,0.013 µg/mL
CO/N=C(\C(=O)N[C@@H]1C(=O)N2C(C(=O)[O-])=C(/C=C/C[N+](C)(CCO)CCO)CS[C@H]12)c1csc(N)n1 [1-d],0.013 µg/mL,0.004 µg/mL,50 µg/mL,0.39 µg/mL,0.78 µg/mL,0.2 µg/mL,0.013 µg/mL,0.049 µg/mL,0.013 µg/mL,0.098 µg/mL,0.049 µg/mL,3.13 µg/mL,1.56 µg/mL,0.78 µg/mL,0.098 µg/mL,0.025 µg/mL,0.78 µg/mL,0.025 µg/mL,6.25 µg/mL,0.013 µg/mL
"CO/N=C(\C(=O)N[C@@H]1C(=O)N2C(C(=O)[O-])=C(/C=C/C[N+]3(C)CC[C@@H](O)[C@H](O)C3)CS[C@H]12)c1csc(N)n1 (relative stereo) [1-f, 7β-[2-(2-Aminothiazol-4-yl)-(Z)-2-methoxyiminoacetamido]-3-[(E)-3-(3,4-trans-dihydroxy-1-methyl-1-piperidinio)-1-propen-1-yl]-3-cephem-4-carboxylate]",0.013 µg/mL,0.013 µg/mL,50 µg/mL,0.39 µg/mL,0.78 µg/mL,0.2 µg/mL,0.025 µg/mL,0.049 µg/mL,0.025 µg/mL,0.049 µg/mL,0.049 µg/mL,3.13 µg/mL,1.56 µg/mL,0.78 µg/mL,0.098 µg/mL,0.025 µg/mL,3.13 µg/mL,0.025 µg/mL,12.5 µg/mL,0.025 µg/mL
